Assay results taken from patent US20240279520A1, “FLUORINE SUBSTITUTED ETHERS AND COMPOSITIONS, METHODS AND USES INCLUDING SAME” (Honeywell International Inc., priority 2022, published 2024).

Assays:
Format in all cases: physicochemical
[1] = Boiling point of fluoroethers; settings: for Boiling point: Table 2; for Bp: Table 5
[2] = Density of fluoroethers; settings: Table 2
[3] = Experimental dielectric property measurements, Agilent 85070 Dielectric Probe; settings: for Experimental Dk at 1 GHz / Experimental Loss Tangent at 1 GHZ: ambient pressure, approximately 23° C.; for Dielectric Constant (20 GHz): room temperature
Experimental: “Dielectric Constant” means the dielectric constant as measured at room temperature at 20 giga hertz (GHz).
Experimental dielectric property measurements were made on all liquids using the Agilent 85070 Dielectric Probe. All measurements were made at ambient pressure and room temperature (approximately 23° C.). Prior to making measurements, the system was calibrated from 1 GHz to 20 GHz with an open circuit, a short circuit, and DI water (@22.4° C.) standard. The result of the calibration is shown in the Table 5 below for DI H2O, and is consistent with DI water at 22.4° C. The accuracy of the probe is given as: Dielectric constant, er′=er′+/−0.05|er*| with er″=er″+/−0.05|er*| and (loss=er″/er′).

Structure (SMILES)	Boiling point [1] [°C]	Bp [1] [°C]	Density [2]	Experimental Dk at 1 GHz [3]	Experimental Loss Tangent at 1 GHZ [3]	Dielectric Constant (20 GHz) [3]
FC(F)OCC(F)(F)C(F)F [Compound 1, 3-(difluoromethoxy)-1,1,2,2-tetrafluoropropane]	76	76	1.3-1.7	2.94	0.036	4.0
FC(F)OCC(F)(F)C(F)(F)F [Compound 2, 3-(difluoromethoxy)-1,1,1,2,2-pentafluoropropane]	46	46	1.3-1.7	5.21	0.038	3.4
FC(F)OC(C(F)(F)F)C(F)(F)F [Compound 3, 2-(difluoromethoxy)-1,1,1,3,3,3-hexafluoropropane]	41	41	1.3-1.7			<5
FC(F)OCC(F)(F)C(F)(F)C(F)(F)F [Compound 4, 4-(difluoromethoxy)-1,1,1,2,2,3,3-heptafluorobutane]	69	69	1.3-1.7	4.51	0.054	2.8
O [DI Water, reference compound]		100		79.15	0.052	
